Experimental data taken from patent publication US20250025438A1, “Derivative of aspartic acid and use thereof in treatment of metabolic diseases such as hepatic fibrosis and non-alcoholic hepatitis” (SHENZHEN JINGTAI TECHNOLOGY CO., LTD., priority 2021, published 2025).
Structures can show the parent of a compound that is named as a salt. Where a SMILES comes first, the peptide text is derived from it.

Legend:
Assay type in all cases: cell-based
[1] = test system: IL-1β; assay: In vitro efficacy in semi-activated LX2 cells, qPCR: IL-1β; settings: 48 hours, Q-PCR
Method: (§1) Test compounds were added to the LX-2 cells respectively, and total RNA in the cells was extracted 48 hours later. This experiment was performed strictly in accordance with the instructions of the Total RNA Kit. The steps were as follows (note: this experiment was performed on ice throughout the entire process, and special RNase-free tips were used throughout the entire process): • 1) The 12-well cell culture plate was taken out from the incubator, the cell culture medium was discarded, the cells were washed twice with 1 mL of 1×PBS, and a negative pressure suction device was used to fully remove PBS; • 2) 350 μL of TRK Lysis Buffer mixture/well was prepared as needed (mixture preparation method: 1 mL of TRKLysis Buffer+20 μL of β-mercaptoethanol), vortexed and mixed well. 350 μL was added to each well of the 12-well cell culture plate, and allowed to stand at room temperature for 5 minutes to fully lyse the cells; • 3) 70% ethanol/well was prepared as needed, vortexed and mixed well. 350 μL was added to each well of the 12-well cell culture plate, mixed well by shaking, and transferred to the spin column (spin column+collection tube were assembled); • 4) Centrifugation was performed at 4° C., 12000 g for 60 sec. The waste liquid was discarded after centrifugation, while the spin column was kept; • 5) 500 μL of RNA Wash Buffer I was added, centrifuged at 4° C., 12000 g for 60 sec, the waste liquid was discarded after centrifugation, and the collection column was kept; • 6) 500 μL of RNA Wash Buffer II (confirmed that ethanol had been added) was added, centrifuged at 4° C., 12000 g for 60 sec, the waste liquid was discarded after centrifugation, and the collection column was kept; • 7) step 6) was repeated once again, centrifugation was performed at 4° C., 12000 g for 90 sec, the waste liquid was discarded after centrifugation, and the collection column was kept; • 8) Centrifugation was performed at 4° C., 12000 g for 120 sec to ensure that the spin column was fully dried; • 9) The dried spin column was inserted into a new 1.5 mL EP tube, and 30 μL of DEPC water was added to the membrane in the center of the spin column. It should be careful not to touch the EP tube cover in this step. It was allowed to stand at room temperature for 5 minutes to ensure that the RNA was fully dissolved in DEPC water. Centrifugation was performed at 4° C., 12000 g for 60 sec, and the EP tube was kept; • 10) NanoDrop ultra-micro-volume spectrophotometer was used to detect RNA concentration;
(§2) 5.2 Reverse transcription of RNA into cDNA: According to the instructions of PrimeScript™ RT reagent Kit (Perfect Real Time), the specific experimental steps were as follows:
(§3) 5.3 Q-PCR detection of target gene expression: According to the instructions of Power SYBR® Green PCR Master Mix, the specific operations were as follows:
(§4) After the reaction was completed, the amplification curve and dissolution curve of Q-PCR were confirmed, and the relative quantification method ([…]) was used to perform data analysis on the experimental results.
(§5) LX2 cells were passaged and plated normally. […] After 48 hours, the cells were collected, total RNA was extracted, and Q-PCR was used to detect the changes in the mRNA expression levels of liver fibrosis-related genes (ACTA2 encoding α-SMA, COL1A1 and COLIA2 encoding collagen I, COL3A1 encoding collagen III, SMAD3 encoding Smad3) and inflammation-related genes (IL1β encoding IL-1β, TNFα encoding TNFα) (for specific methods, see 5. Q-PCR detection of target gene expression as described above). α-SMA was a marker of hepatic stellate cell activation, and collagen I and collagen III were the main components of extracellular matrix deposition.

[2] = test system: COL1A1; assay: In vitro efficacy in semi-activated LX2 cells, qPCR: COL1A1; settings: 48 hours, Q-PCR; for inhibition at 50 µM: LX-2, 50 µM; for inhibition at 12.5 µM: LX-2, test concentration 12.5 μM; for inhibition at 100 µM: LX-2, test concentration 100 μM
Method: as §1, §2, §3, §4, §5

[3] = test system: α-SMA; assay: In vitro efficacy in semi-activated LX2 cells, qPCR: α-SMA; settings: 48 hours, Q-PCR; for inhibition at 50 µM / inhibition at 12.5 µM / inhibition at 100 µM: read-out: α-SMA mRNA inhibition rate; for inhibition of the expression of α-SMA at the mRNA level: Table 2; for inhibition at 100 µM: test concentration 100 μM
Method: as §1, §2, §3, §4, §5

[4] = test system: COL3A1; assay: In vitro efficacy in semi-activated LX2 cells, qPCR: COL3A1; settings: 48 hours, Q-PCR; for inhibition at 50 µM: LX-2, 50 µM; for inhibition at 12.5 µM: LX-2, test concentration 12.5 μM; for inhibition at 100 µM: LX-2, test concentration 100 μM
Method: as §1, §2, §3, §4, §5

[5] = test system: Smad3; assay: In vitro efficacy in semi-activated LX2 cells, qPCR: Smad3; settings: 48 hours, Q-PCR; for inhibition at 50 µM: LX-2, 50 µM
Method: as §1, §2, §3, §4, §5

[6] = test system: collagen I and collagen III; assay: Semi-activated LX2 cells, qPCR: collagen I and collagen III at the mRNA level; settings: 48 hours, Q-PCR, Table 2
Method: as §1, §3
LX2 cells were passaged and plated normally. After adherent growth for 12 hours, 50 µM of the test compound was added. After 48 hours, the cells were collected, total RNA was extracted, and Q-PCR was used to detect the changes in the mRNA expression levels of liver fibrosis-related genes (ACTA2 encoding α-SMA, COL1A1 and COLIA2 encoding collagen I, COL3A1 encoding collagen III, SMAD3 encoding Smad3) and inflammation-related genes (IL1β encoding IL-1β, TNFα encoding TNFα) (for specific methods, see 5. Q-PCR detection of target gene expression as described above). α-SMA was a marker of hepatic stellate cell activation, and collagen I and collagen III were the main components of extracellular matrix deposition. […]

[7] = Homo sapiens, read-out: COL1A1 mRNA inhibition rate
[8] = Homo sapiens, read-out: COL3A1 mRNA inhibition rate
[9] = Homo sapiens, read-out: Smad3 mRNA inhibition rate

`COC(=O)[C@H](CC(=O)O)NC(=O)OCC1c2ccccc2-c2ccccc21` [Compound 5] showed an inhibition at 50 µM ([1]; Homo sapiens, LX-2, 50 µM, read-out: IL-1β mRNA inhibition rate) of 1 to 10%.
In the case of `COC(=O)C[C@H](N)C(=O)OC.Cl` [Compound 7], the “IL-1β mRNA inhibition rate” value ([1]; test concentration 25 μM) is reported as “E (E represented that the inhibition rate was 1% to 10%)”.
In the case of `N[C@@H](CC(=O)O)C(=O)OCc1ccccc1` [Compound 20], the “COL1A1 mRNA inhibition rate” value ([2]; test concentration 12.5 μM) is reported as “E (E represented that the inhibition rate was 1% to 10%)”, the “α-SMA mRNA inhibition rate” value ([3]; test concentration 12.5 μM) is reported as “E (E represented that the inhibition rate was 1% to 10%)” and the “COL3A1 mRNA inhibition rate” value ([4]; test concentration 12.5 μM) is reported as “E (E represented that the inhibition rate was 1% to 10%)”. For the same molecule, the “Smad3 mRNA inhibition rate” value ([5]; test concentration 12.5 μM) was “E (E represented that the inhibition rate was 1% to 10%)”.
With `CC(C)(C)OC(=O)N[C@@H](CC(=O)O)C(=O)OCc1ccccc1` [Compound 21] the “inhibition of the expression of collagen I and collagen III at the mRNA level” value [6] was “could inhibit”, the inhibition at 50 µM [2, 7] was 1 to 10% and the inhibition at 50 µM [3] was 1 to 10%. For the same molecule, the inhibition at 50 µM [4, 8] was 10 to 25% and the inhibition at 50 µM [5, 9] was 1 to 10%.
For `CC(C)(C)OC(=O)N[C@@H](CC(=O)OCc1ccccc1)C(=O)O` [Compound 24], the inhibition at 50 µM [2, 7] was 1 to 10% and the inhibition at 50 µM [4, 8] was 1 to 10%.
Molecule `COC(=O)[C@H](CC(=O)O)NC(=O)OCc1ccccc1` [Compound 25] has an inhibition at 50 µM [2, 7] of 1 to 10% and an inhibition at 50 µM [3] of 1 to 10%.
In the case of `N[C@@H](CC(=O)NC(c1ccccc1)(c1ccccc1)c1ccccc1)C(=O)O` [Compound 27], the inhibition at 50 µM [5, 9] is reported as 1 to 10%.
`COC(=O)[C@H](Cc1ccccc1)NC(=O)C[C@H](N)C(=O)O` [Compound 32] showed an inhibition at 50 µM [2, 7] of 10 to 25%, an inhibition at 50 µM [3] of 1 to 10% and an inhibition at 50 µM [4, 8] of 1 to 10%.
With `CCOC(=O)C[C@H](N)C(=O)O` [Compound 35, 4-ethyl L-aspartic acid ester] the “inhibition of the expression of collagen I and collagen III at the mRNA level” value [6] was “could inhibit”, the inhibition at 50 µM [2, 7] was 10 to 25% and the inhibition at 50 µM [4, 8] was 1 to 10%.
For `C[C@@H](NC(=O)[C@@H](N)CC(=O)O)C(=O)NC1C(C)(C)SC1(C)C` [Compound 38], the “inhibition of the expression of collagen I and collagen III at the mRNA level” value [6] was “could inhibit”, the inhibition at 50 µM [2, 7] was 25 to 50% and the inhibition at 50 µM [4, 8] was 1 to 10%.
`N[C@H](C(=O)O)[C@@H](N)C(=O)O` [Compound 43] showed an inhibition at 50 µM [3] of 1 to 10%, an inhibition at 50 µM [4, 8] of 1 to 10% and an inhibition at 50 µM [5, 9] of 1 to 10%.
With `CC(C)OC(=O)OCOC(=O)[C@@H](N)CC(=O)O` [Compound 51, 1-(((isopropoxycarbonyl)oxy)methyl) L-aspartic acid ester hydrochloride] the inhibition at 50 µM [3] was 1 to 10%.
With `N[C@@H](CC(=O)O)C(=O)OCOC(=O)[C@@H](N)CC(=O)O` [Compound 57, (3S,3'S)-4,4′-(methylenebis (oxy))bis (3-amino-4-oxobutyric acid) hydrochloride] the inhibition at 25 µM ([5]; Homo sapiens, LX-2, test concentration 25 μM, read-out: Smad3 mRNA inhibition rate) was 1 to 10%.
With `O=C(O)C[C@H](NC(=O)C1CC1)C(=O)O` [Compound 60, (cyclopropylcarbonyl)-L-aspartic acid] the inhibition at 50 µM [3] was 1 to 10% and the inhibition at 50 µM [5, 9] was 1 to 10%.
`COC(=O)C[C@H](NC(C)=O)C(=O)O` [Compound 63, 4-methyl acetyl-L-aspartic acid ester] was tested, and the “inhibition of the expression of collagen I and collagen III at the mRNA level” value [6] was “could inhibit”, the inhibition at 50 µM [3] was 1 to 10% and the inhibition at 50 µM [4, 8] was 10 to 25%.
For `COC(=O)[C@H](CC(=O)O)NC(C)=O` [Compound 65, 1-methyl acetyl-L-aspartic acid ester], the inhibition at 12.5 µM [2, 7] was 10 to 25%, the inhibition at 12.5 µM ([3]; test concentration 12.5 μM) was 1 to 10% and the inhibition at 12.5 µM [4, 8] was 1 to 10%.
In the case of `CCC(=O)N[C@@H](CC(=O)O)C(=O)OC` [Compound 66, 1-methyl propionyl-L-aspartic acid ester], the “inhibition of the expression of collagen I and collagen III at the mRNA level” value [6] is reported as “could inhibit” and the inhibition at 50 µM [2, 7] is reported as 25 to 50%.
`COC(=O)C[C@H](NC(=O)[C@H](C)N)C(=O)O` [Compound 67, (S)-2-((S)-2-aminopropionamido)-4-methoxy-4-oxobutyric acid hydrochloride] (HELM PEPTIDE1{A.D}|CHEM1{[CO[*:1]]}$PEPTIDE1,CHEM1,2:R3-1:R1$$$V2.0) showed an inhibition at 50 µM [4, 8] of 1 to 10%.
`COC(=O)C[C@H](N)C(=O)OC(C)OC(=O)[C@@H](N)CC(=O)OC` [Compound 68, O′1,O1-(ethan-1,1-diyl)4-dimethyl (2S,2'S)-bis (2-aminosuccinate) hydrochloride] was tested, and the inhibition at 100 µM [2, 7] was 1 to 10%, the “inhibition of the expression of α-SMA at the mRNA level” value (shortened to “inhibition of the expression of α-SMA”) [3] was “could inhibit” and the inhibition at 100 µM [3] was 25 to 50%. The inhibition at 100 µM [4, 8] was 1 to 10%.
For `CCOC(=O)C[C@H](N)C(=O)OCOC(=O)[C@@H](N)CC(=O)OC` [Compound 70, 1-((((S)-2-amino-4-ethoxy-4-oxobutyryl)oxy)methyl) 4-methyl L-aspartic acid ester hydrochloride], the “inhibition of the expression of collagen I and collagen III at the mRNA level” value [6] was “could inhibit”, the inhibition at 100 µM [2, 7] was 1 to 10% and the “inhibition of the expression of α-SMA” value [3] was “could inhibit”. For the same molecule, the inhibition at 100 µM [3] was 50 to 75% and the inhibition at 100 µM [4, 8] was 10 to 25%.
For `COC(=O)C[C@H](N)C(=O)OCOC(=O)[C@@H](N)CC(=O)OC(C)C` [Compound 71, 1-((((S)-2-amino-4-isopropoxy-4-oxobutyryl)oxy)methyl) 4-methyl L-aspartic acid ester hydrochloride], the “inhibition of the expression of collagen I and collagen III at the mRNA level” value [6] was “could inhibit”, the inhibition at 12.5 µM [2, 7] was 10 to 25% and the inhibition at 12.5 µM [4, 8] was 1 to 10%.
For `CCOC(=O)C[C@H](N)C(=O)OCOC(=O)[C@@H](N)CC(=O)OCC` [Compound 72, hydrochloride], the “inhibition of the expression of collagen I and collagen III at the mRNA level” value [6] was “could inhibit”, the inhibition at 25 µM ([2]; Homo sapiens, LX-2, test concentration 25 μM, read-out: COL1A1 mRNA inhibition rate) was 25 to 50% and the inhibition at 25 µM ([4]; Homo sapiens, LX-2, test concentration 25 μM, read-out: COL3A1 mRNA inhibition rate) was 25 to 50%.
For `CC(C)OC(=O)C[C@H](N)C(=O)OCOC(=O)[C@@H](N)CC(=O)OC(C)C` [Compound 73, 4-diisopropyl O′1,O1-methylene (2S,2'S)-bis (2-aminosuccinate) hydrochloride], the “inhibition of the expression of α-SMA” value [3] was “could inhibit” and the inhibition at 12.5 µM ([3]; test concentration 12.5 μM) was 10 to 25%.
`COC(=O)C[C@H](N)C(=O)OCOC(=O)C[C@H](N)C(=O)OC.Cl` [Compound 74, 4-((((S)-2-amino-4-methoxy-4-oxobutyryl)oxy)methyl)1-methyl L-aspartic acid ester hydrochloride] was tested, and the “inhibition of the expression of collagen I and collagen III at the mRNA level” value [6] was “could inhibit”, the inhibition at 100 µM [2, 7] was 25 to 50% and the inhibition at 100 µM [3] was 25 to 50%. The inhibition at 100 µM [4, 8] was 25 to 50%.
